The target of data set [1] is cathepsin L (Homo sapiens, UniProt P07711). The following applies: cited from earlier work.
In data set [2] the test system is Histomonas meleagridis. The following applies: 300-400 ppm, cited from earlier work.
The subject of data set [3] is Eimeria spp. The following applies: 20 mg/kg body weight, up to 14 days before the experimental infection; on average; cited from earlier work.
Data set [4] deals with T. gallinae. The data set is described as follows: in vitro viability of T. gallinae (viable-to-dead ratio, DAPI staining). The following applies: different concentrations; after 24 hours of treatment. It is filed as cell-based, Trichomonas gallinae. Here is the method: (§1) Z—FY—CHO was tested in an in vitro assay on growth and viability of two strains of T. gallinae (Vienna strain and ATCC 30095). T. gallinae is cultured in vitro under axenic conditions. Both strains are cultured in ATCC® Medium 2154 (LYI Entamoeba medium) which is prepared according to the recommendations of ATCC. Culture conditions are anaerobic at 37° C. Cultures are kept in sterile 50 ml plastic tubes in a total volume of 10 ml. T. gallinae cultures are passaged regularly (in two-day intervals) in advance to maintain the strains for the study.
(§2) Five concentrations of each substance were tested against T. gallinae, namely 1 nM, 10 nM, 100 nM, 1000 nM, and 10000 nM. The total exposure time of the test compounds for the efficacy assay was 72 hours; media were renewed in intervals of 24 hours. Efficacy was measured after 24 hours of incubation.
The total parasite number is calculated before a subsample is subject to counting of viable and dead parasites. For counting, parasites are stained by DAPI nucleus staining for differentiation of viable and dead parasites.

The test system of data set [5] is T. gallinae. The data set is described as follows: in vitro growth of T. gallinae (total trophozoite number). It is filed as cell-based, Trichomonas gallinae. The following applies: 10,000 nM, after 24 hours of treatment, normalized to 1% DMSO-treated group NCA. Here is the method:
as §1
Quantification of total parasite number: The total parasite number is calculated separately for each tube. Therefore, the contents of each tube are centrifuged and the sediment resuspended in a given volume. A dilution of a subsample is being examined in a Neubauer counting chamber, the total number of parasites counted and the number of parasites in the respective tube be calculated.
Each treatment group consists of 3 identical replicates, i.e. 3 tubes with identical treatment (triplicate).
as §2

Data set [6] has as its system coccidiae. The data set is described as follows: coccidiosis finding in the in vivo pigeon study. Also noted: species or system Columba livia forma domestica. The following applies: 5 mg/kg oral twice daily during 4 days; 3 of 15 placebo pigeons still showed coccidiae. Here is the method: (§3) Thirty Columba livia forma domestica of both gender (2 groups of fifteen birds) were inoculated per os via a syringe with 2 million T. gallinae cultured from the Vienna strain. Initial age of the pigeons was 4-5 months. Two days later the pigeons were treated with twice daily oral administration of 5 mg/kg of Z—FY—CHO or the placebo (vehicle alone) during 4 days. The formulation was composed of 50 mg of the agent added to 1.0 ml 96 g/v % ethanol and 4 gram of prewarmed Solutol HS15. The formulation was stirred to a clear solution, then it was topped up with prewarmed distilled water to a volume of 10 ml. From this solution 0.1 ml per 100 g body weight was administered (=5 mg/kg). […] Regurgitation has been detected first in one pigeon from the placebo group in the evening on day of infection. […] No gross pathological findings in the esophagus or crop were detected during the necropsy. However, heterophilic infiltrates in the mucosa as well as in the submucous tissue and lymphocytes and plasmacells in the submucous tissue have been detected histopathologically in total eight pigeons (27%). Catarrhal erosive esophagitis and ingluvitis was significant more often detected in pigeons from the placebo group (7 of 8 pigeons with inflammatory reaction of the esophagus and crop, 88%; p=0.018).

Data set [7] is described as follows: side effects in the in vivo pigeon study. On the set-up: species or system Columba livia forma domestica. The following applies: 10 mg/kg per day oral, 4 days, pigeons. The procedure:
as §3

In data set [8] the test system is T. gallinae cultured from the Vienna strain. The data set is described as follows: in vivo efficacy study in pigeons inoculated with T. gallinae. On the set-up: species or system Columba livia forma domestica. The following applies: 5 mg/kg oral twice daily during 4 days, 15 birds per group. The procedure: as §3

Residues, ends and D or L forms follow the SMILES beside them. *: point of attachment. Cbz = O=C(OCc1ccccc1)*; tBu = CC(C)(C)*

Chain of cathepsin L (P07711 114-333, species assumed): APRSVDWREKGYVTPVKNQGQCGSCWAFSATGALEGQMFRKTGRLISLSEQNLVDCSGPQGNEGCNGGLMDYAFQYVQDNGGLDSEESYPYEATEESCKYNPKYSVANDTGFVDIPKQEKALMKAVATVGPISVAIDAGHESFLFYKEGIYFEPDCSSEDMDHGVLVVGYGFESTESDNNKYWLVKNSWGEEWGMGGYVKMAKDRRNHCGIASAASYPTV

For `C[C@@H](C=O)NC(=O)[C@H](Cc1ccccc1)NC(=O)OCc1ccccc1` [d, Z-Phe-Ala-CHO], in data set [1], the IC50 (commonly the concentration needed to halve the response being measured) is 15.5 nM.

`O=C[C@H](Cc1ccccc1)NC(=O)[C@H](Cc1ccccc1)NC(=O)OCc1ccccc1` [a, Z-Phe-Phe-CHO] (Cbz-Phe-Phe-aldehyde): the IC50 in data set [1] is 0.74 nM. As for `CC(C)C[C@@H](C=O)NC(=O)[C@H](Cc1ccccc1)NC(=O)OCc1ccccc1` [c, Z-Phe-Leu-CHO] (Cbz-Phe-Leu-aldehyde), in data set [1], the IC50 was 0.78 nM.

For the molecule `CC1CS(=O)(=O)CCN1/N=C/c1ccc([N+](=O)[O-])o1` (stereo not drawn) [Nifurtimox], the tolerability result in data set [2] (turkeys) is recorded as “tolerated by turkeys”. The “efficacy (antiprotozoal)” value in data set [2] is recorded as “effective”. Regarding `Cc1cc(-n2c(=O)[nH]c(=O)n(C)c2=O)ccc1Oc1ccc(SC(F)(F)F)cc1` [toltrazuril], the “reduction in the number of oocysts in individual fecal samples” value in data set [3] is reported as “more than 97%”.

As to `O=C[C@H](Cc1ccc(O)cc1)NC(=O)[C@H](Cc1ccccc1)NC(=O)OCc1ccccc1` [b, N-(benzyloxycarbonyl)-L-phenylalanyl-L-tyrosinal] (Cbz-Phe-Tyr-aldehyde), the “viable-to-dead ratios compared to the control group NCA” value in data set [4] is “Markedly lower”. For the same molecule, the “trophozoite number relative to group NCA (control group)” value in data set [5] (ATCC 30095 strain) is on record as 26.3%; in data set [5] (Vienna strain) it was 24.0%. Also, in data set [6], the “detection of coccidiae after treatment” value was “no coccidiae could be detected”. Also, in data set [7], the side effects result is listed as “no obvious and/or statistically significant side effects”. Also, the pigeons with regurgitation entry in data set [8] (placebo 7 of 15, p=0.018) is “one”. Further, in data set [8] (placebo 7 pigeons, p=0.018), the “pigeons with catarrhal erosive esophagitis and ingluvitis (histopathology)” value is recorded as “one”. In the case of `COc1ccc(C[C@@H](C=O)NC(=O)[C@H](Cc2ccccc2)NC(=O)OCc2ccccc2)cc1` [e, Z-Phe-Tyr(Me)-CHO] (Cbz-Phe-Tyr(Me)-aldehyde), the IC50 in data set [1] was 2.95 nM.

For the molecule `CC(C)(C)Oc1ccc(CC(C=O)NC(=O)C(Cc2ccccc2)NC(=O)OCc2ccccc2)cc1` (stereo not drawn) [f, Z-Phe-Tyr(Bu)-CHO] (Cbz-Phe-Tyr(tBu)-aldehyde; configuration not given here), the IC50 in data set [1] is 6.96 nM.

The record behind these values is patent US20190030113A1, “DIPEPTIDYL ALDEHYDES FOR THE TREATMENT AND/OR PREVENTION OF PARASITIC DISEASES” (AXIAVA PHARMA UG, priority 2017, published 2019).
